Where two headings read alike, the source gives them in different places.
Columns and labels:
[1] = system: HCV genotype 2a infectious virus; experiment: HCV genotype 2a infectious virus assay; assay type: cell-based, HCV (strain JFH-1; genotype 2a); settings: Hepatitis C virus
Method: (§1) Compounds were tested in a HCV genotype 2a infectious virus assay and the results are summarized in Table 7, wherein A represents a value smaller than 1 μM, and B represents a value between 1 μM to 10 μM, C represents a value between 10 μM to 75 μM and D represents a value greater than 75 μM.
The HCV in vitro infection core ELISA assay measures the ability of a test compound to inhibit replication of an infectious HCV (strain JFH-1; genotype 2a) in cell culture. […] We have developed this model for determining the efficacy of antiviral compounds against an infectious virus in vitro using HCV producing cells (HPC), a proprietary Huh-7-derived cell sublineage capable of propagating the JFH-1 HCV virus. The readout of the assay is quantification of HCV core protein by ELISA 5 days post infection with JFH-1 virus and treatment with a test compound.
Ninety-six-well Corning Costar plates were seeded with HPC cells at a density of 3.0×10^3 cells per well in 50 μL of Huh-7 media. Compound stock solutions were made up freshly in Huh-7 media (DMEM (containing glucose, L-glutamine and sodium pyruvate), 10% FBS, 100 IU/mL penicillin, 100 μg/mL streptomycin, 2 mM GlutaMAX, 1% MEM non-essential amino acids) as 2× stock. Seven additional 3-fold drug dilutions were prepared from the 2× stocks in Huh-7 media. At least 4 hours after HPC cells were seeded, the media in the 96-well culture plates was aspirated and 50 μL of each drug dilution and 50 μL of JFH-1 HCV was added to each well.
At 16 hrs post treatment and infection, the virus inoculum was removed by aspiration. The cultures were treated at the same final concentrations of drug diluted to 1× in Huh-7 media to a final volume of 200 μL. Cells were incubated in the presence of drug for 4 additional days at 37° C./5% CO2.
Media was removed from the plates by aspiration. Cells were fixed with 250 μL 1:1 acetone:methanol for 90 seconds, washed once in PBS and then three times with 1×KPL wash solution. The assay plates were then blocked with 150 μL/well 10% FBS-TNE (50 mM Tris-HCl (pH 7.5; Sigma), 100 mM NaCl, 1 mM EDTA with 10% FBS) for 1 hr at room temperature. Cells were washed three times with 1×KPL wash solution and incubated with 100 μL/well anti-hepatitis C core mAb (1 mg/mL stock diluted 1:500 in 10% FBS-TNE) for 2 hours at 37° C. Cells were washed three times with 1×KPL wash solution and incubated with 100 μL/well HRP-goat anti-mouse antibody (diluted 1:2,500 in 10% FBS-TNE) for 1 hr at 37° C.
OPD solution was prepared using 1 OPD tablet+12 mL citrate/phosphate buffer (16 mM citric acid, 27 mM Na2HPO4) plus 5 μL 30% H2O2 per plate. Cells were washed three times with 1×KPL wash solution and developed with 100 μL/well OPD solution for 30 minutes in the dark at room temperature. The reaction was stopped with 100 μL/well of 2NH2SO4, and absorbance measured at A490 nm in a Victor^3 V 1420 multilabel counter (Perkin Elmer). The EC50 values for each compound were calculated from dose response curves from the resulting best-fit equations determined by Microsoft Excel and XLfit 4.1 software. The negative control for inhibition of virus replication was untreated HPC cells infected with the JFH-1 HCV virus strain. The negative ELISA control was untreated, uninfected HPC cells. The positive ELISA control was untreated HPC cells infected the JFH-1 HCV virus strain.

[2] = Cytotoxicity evaluation (Cell Titer 96 AQueous One Solution Cell Proliferation Assay); assay type: cell-based; settings: human; GS4.1 cells, cellular viability
Method: (§2) For cytotoxicity evaluation, GS4.1 cells were treated with compounds as described above and cellular viability was monitored using the Cell Titer 96 AQueous One Solution Cell Proliferation Assay (Promega). CC50 values were determined from the % cytotoxicity versus concentration data with Tecan Magellan software as described above.

[3] = system: Huh-7 cells containing HCV Con1 subgenomic replicon (GS4.1 cells); experiment: HCV Replicon Assay (NS4A ELISA); assay type: cell-based; settings: Hepatitis C virus, Huh-7, 72 hr, NS4A protein by ELISA
Outline: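 GS4.1 cells (Huh-7 with HCV Con1 subgenomic replicon) given ten 2-fold compound dilutions (top 75 μM) or a single 15 μM dose in 0.5% DMSO for 72 h at 37 °C. NS4A measured by cell ELISA (A492); EC50 from four-parameter sigmoidal fit, single-dose results as % inhibition at 15 μM.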

[4] = target: T1, HCV NS3-NS4A protease (Hepatitis C virus genotype 1b, UniProt P26663); experiment: HCV Protease Assay (SensoLyte 620 HCV Protease Assay kit); assay type: biochemical; settings: 1.2 nM HCV NS3-NS4A protease, 60 min at room temperature, 5% DMSO
T1 construct: made in house
Outline: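 Protease at 1.2 nM, run with the SensoLyte 620 fluorogenic kit under supplier conditions, with compounds at several concentrations in buffer with 5% final DMSO. Reactions ran 60 min at room temperature before fluorescence reading; IC50 from four-parameter sigmoidal fit of percent inhibition.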

[5] = system: mutant protease D168A; experiment: Resistance profile, mutant protease D168A; assay type: biochemical, HCV; settings: ratio of inhibitory activity against mutant enzyme over non-mutant enzyme
Method: (§3) General procedure: Measurement of the inhibitory effect of compounds on HCV protease activity was performed with the SensoLyte™ 620 HCV Protease Assay kit from AnaSpec, Inc. (San Jose, Calif.) under conditions described by the supplier using 1.2 nM HCV NS3-NS4A protease, which was obtained according to Taremi et al. (Protein Science, 1998, 7, 2143-2149). The compounds were tested at a variety of concentrations in assay buffer containing a final DMSO concentration of 5%. Reactions were allowed to proceed for 60 min at room temperature and fluorescence measurements were recorded with a Tecan Infinity Spectrofluorimeter. The IC50 values were determined from the percent inhibition versus concentration data using a sigmoidal non-linear regression analysis based on four parameters with Tecan Magellan software.
(§4) Compounds were evaluated against three mutant proteases R155Q, A156S, and D168A, as summarized in Table 8, wherein A represents a value smaller than 1, and B represents a value between 1 to 10, and C represents a value greater than 10. The fold of change in inhibitory activity was determined by measuring the ratio of the inhibitory activity of a compound against a mutant enzyme over the inhibitory activity of the same compound against non-mutant enzyme. The inhibitory activity was determined using the procedure as described in Example 31.

[6] = system: mutant protease A156S; experiment: Resistance profile, mutant protease A156S; assay type: biochemical, HCV; settings: ratio of inhibitory activity against mutant enzyme over non-mutant enzyme
Method: as §3, §4

[7] = Cytotoxicity (CC50) in the genotype 1b replicon assay; assay type: cell-based; settings: human, genotype 1b replicon assay as described in Example 32
Method: as §2
as §1, with “a” for “a HCV”, “1b replicon” for “2a infectious virus”, “assay as described in Example 32” for “assay”, “6,” for “7,”

[8] = system: mutant protease R155Q; experiment: Resistance profile, mutant protease R155Q; assay type: biochemical, HCV; settings: ratio of inhibitory activity against mutant enzyme over non-mutant enzyme
Method: as §3, §4

[9] = system: genotype 1b replicon; experiment: Antiviral activity in a genotype 1b replicon assay; assay type: cell-based, HCV; settings: Hepatitis C virus
Method: General procedure: Huh-7 cells containing HCV Con1 subgenomic replicon (GS4.1 cells) were grown in Dulbecco's Modified Eagle Medium (DMEM) supplemented with 10% fetal bovine serum (FBS), 2 mM L-glutamine, 110 mg/L sodium pyruvate, 1× non-essential amino acids, 100 U/mL penicillin-streptomycin, and 0.5 mg/mL G418 (Invitrogen). For dose-response testing, the cells were seeded in 96-well plates at 7.5×10^3 cells/well in a volume of 50 μL, and incubated at 37° C./5% CO2. Three hours after plating, 50 μL of ten 2-fold serial dilutions of compounds (highest concentration, 75 μM) were added, and cell cultures were incubated at 37° C./5% CO2 in the presence of 0.5% DMSO. Alternatively, compounds were tested at a single concentration of 15 μM. In all cases, Huh-7 cells lacking the HCV replicon served as negative control. The cells were incubated in the presence of compounds for 72 hr after which they were monitored for expression of the NS4A protein by enzyme-linked immunosorbent assay (ELISA). For this, the plates were then fixed for 1 min with acetone/methanol (1:1, v/v), washed twice with phosphate-buffered saline (PBS), 0.1% Tween 20, blocked for 1 hr at room temperature with TNE buffer containing 10% FBS and then incubated for 2 hr at 37° C. with the anti-NS4A mouse monoclonal antibody A-236 (ViroGen) diluted in the same buffer. After washing three times with PBS, 0.1% Tween 20, the cells were incubated 1 hr at 37° C. with anti-mouse immunoglobulin G-peroxidase conjugate in TNE, 10% FBS. After washing as described above, the reaction was developed with O-phenylenediamine (Zymed). The reaction was stopped after 30 min with 2 NH2SO4, and absorbance was read at 492 nm using Sunrise Tecan spectrophotometer. EC50 values were determined from the % inhibition versus concentration data using a sigmoidal non-linear regression analysis based on four parameters with Tecan Magellan software. When screening at a single concentration, the results were expressed as % inhibition at 15 μM.
as §1, with “a” for “a HCV”, “1b replicon” for “2a infectious virus”, “assay as described in Example 32” for “assay”, “6,” for “7,”

[10] = genotype 1b replicon assay as described in Example 32, read-out: EC50

T1 sequence (P26663 1027-1208): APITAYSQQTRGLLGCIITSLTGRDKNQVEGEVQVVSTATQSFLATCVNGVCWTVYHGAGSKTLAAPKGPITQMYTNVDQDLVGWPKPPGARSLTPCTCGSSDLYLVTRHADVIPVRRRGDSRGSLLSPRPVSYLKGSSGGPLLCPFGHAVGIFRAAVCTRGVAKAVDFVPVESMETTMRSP

| Compound | EC50 [1] [nM] | CC50 [2] [nM] | EC50 [3] [nM] | IC50 [4] [nM] | Fold-Change D168A [5] | Fold-Change A156S [6] | CC50 ([7]; GS4.1 cells) [nM] | Fold-Change R155Q [8] | EC50 [9] [nM] | EC50 [9, 10] [nM] | CC50 [7] [nM] |
| --- | --- | --- | --- | --- | --- | --- | --- | --- | --- | --- | --- |
| COc1ccc2c(O[C@H]3C[C@H]4C(=O)N(C)CCCC/C=C\[C@@H]5C[C@@]5(C(=O)NS(=O)(=O)C5(C)CC5)NC(=O)N4C3)cc(-c3nc(C(C)C)cs3)nc2c1Cl [Compound 56d, (Z)-(4R,6S,15S,17S)-[17-[8-chloro-7-methoxy-2-(4-isopropylthiazol-2-yl)quinolin-4-yloxy]-13-N-methyl-2,14-dioxo-1,3,13-triazatricyclo[13.3.0.0]octadec-7-en-4-yl]carbonyl(1-methyl-cyclopropyl)sulfonamide] | < 1000 | > 75000 | < 1000 | < 1000 | C (C represents a value greater than 10) | A (A represents a value smaller than 1) | 10000 to 75000 | A (A represents a value smaller than 1) | < 1000 | – | – |
| COc1ccc2c(O[C@H]3C[C@H]4C(=O)N(C)CCCC/C=C\[C@@H]5C[C@@]5(C(=O)NS(=O)(=O)C5CC5)NC(=O)N4C3)cc(-n3ccc(C(F)(F)F)n3)nc2c1Cl [Compound 91e, (Z)-(4R,6S,15S,17S)-[17-[8-chloro-7-methoxy-2-(3-trifluoromethyl-1H-pyrazol-1-yl)quinolin-4-yloxy]-13-N-methyl-2,14-dioxo-1,3,13-triazatricyclo[13.3.0.0]octadec-7-ene-4-yl]carbonyl(cyclopropyl)sulfonamide] | < 1000 | > 75000 | < 1000 | < 1000 | C (C represents a value greater than 10) | A (A represents a value smaller than 1) | 10000 to 75000 | A (A represents a value smaller than 1) | – | < 1000 | – |
| COc1ccc2c(O[C@H]3C[C@H]4C(=O)N(C)CCCC/C=C\[C@@H]5C[C@@]5(C(=O)NS(=O)(=O)C5(C)CC5)NC(=O)N4C3)cc(-c3nc(C(C)C)cs3)nc2c1C [Compound 56b, (Z)-(4R,6S,15S,17S)-[17-[7-methoxy-8-methyl-2-(4-isopropylthiazol-2-yl)quinolin-4-yloxy]-13-N-methyl-2,14-dioxo-1,3,13-triazatricyclo[13.3.0.0]octadec-7-en-4-yl]carbonyl(1-methyl-cyclopropyl)sulfonamide] | 1000 to 10000 | > 75000 | < 1000 | < 1000 | C (C represents a value greater than 10) | A (A represents a value smaller than 1) | – | A (A represents a value smaller than 1) | – | < 1000 | 10000 to 75000 |
